In patent publication US8404803B2, “Cancer-associated antigen analogue peptides and uses thereof” (Chugai Seiyaku Kabushiki Kaisha, priority 2005, dated 2013):
“And” between values parts separate entries of the source, which are not always exact repeats. Identical values can stand only once.

Tests used:
Assay type in all cases: cell-based, human
[1] = test system: CD4-positive/IFNγ-producing T cells; experiment: Flow cytometry detection of CD4-positive/IFNγ-positive T cells in peptide-stimulated mononuclear cell samples; details: for CD4-positive/IFNγ expression-positive frequencies, mean ± standard deviation: epitope determination, patient's mononuclear cell samples (FIG. 16); for CD4+ IFNγ+ number of positive samples/tested samples: mononuclear cell samples cultured 48 hours with peptide and IL-2; for CD4+ IFNγ+ number of positive samples/tested samples / CD4+ IFNγ+ number of positive samples/tested samples × 100 (%): positive sample > mean of control + 2 × SD (OVCA10-MNC group, 1.378%); for frequency of CD4-positive/INFγ-positive cells, mean±standard deviation: all of the analyzed mononuclear cell samples (FIG. 11); for frequency of CD4-positive/IFNγ-positive T cells: FIGS. 9 and 10, IL-2 and analogue peptide added
Method: (§1) All operations concerning cell culture were performed aseptically. First, human peripheral mononuclear cell fractions (comprising T cells, B cells, macrophages and such; hereinafter referred to as “mononuclear cell samples”) were prepared from the blood samples by density gradient centrifugation. Next, these mononuclear cells were suspended at 1×10^5 cell/ml in complete media having the following composition: • Complete Medium: RPMI1640 culture medium (Gibco Laboratories Inc., Grand Island, N.Y.) to which 10% fetal bovine serum (Cell Culture Laboratories, Cleveland, Ohio), 0.2 mM L-glutamine, 100 U/mL penicillin, 100 μg/mL streptomycin (Gibco Laboratories Inc.), and 0.2 ng/mL recombinant human IL-2 (Dainippon Pharmaceutical Co., Tokyo, Japan) have been mixed.
(§2) Theses mononuclear cell samples were placed still in V-bottomed 96-well tissue culture plastic plates (Flow Laboratories Inc., Horsham, Pa.) in the presence and absence of peptides, and cultured for 48 hours at 37° C. in a CO2 culture apparatus (Sanyo Medica, Osaka, Japan).
(§3) A number of mouse-derived anti-human specific monoclonal antibodies with different fluorescences (hereinafter referred to as ‘monoclonal antibodies’) were used to simultaneously analyze by double-staining the CD markers CD4 and CD8, which are on the T cell membranes, and the cytokines within the T cells. As the monoclonal antibodies, products labeled with either fluorescent substance phycoerythrin (hereinafter ‘PE’) or fluorescein isothiocyanate (hereinafter ‘FITC’) were used (Miltenyi Biotec, Glandbach, Germany). For detection, a flow cytometry apparatus FACScan (Becton Dickinson) was used to measure the frequency of cells to which the monoclonal antibodies had bound. Positive cells are automatically detected by the flow cytometry apparatus.
(§4) Since positive cells cannot be identified after the cytokines have been secreted to the outside of the cells, detection was performed at a stage where the cytokines are inside the cells. Therefore, the Cytofix/Cytoperm Kit (Pharmingen, San Diego, Calif.) was used for the analysis, using methods recommended by the manufacturer and a positive control for detection recommended by the kit (Prussin C, Metcalfe D, Detection of intracytoplasmic cytokine using flow cytometry and directly conjugated anti-cytokine antibodies, J Immunol Meth. 188: 117-128, 1995). Specifically, brefeldin A (Pharmingen, San Diego, Calif.) was added at 0.7 μl/1 ml/well to stop protein production in the Golgi apparatus, and the peptide-stimulated mononuclear cell samples were treated at 37° C. for two hours. Next, the culture plates were placed on ice and the reaction was stopped by adding physiological saline at 4° C. The mononuclear cell samples were transferred into 15 ml tubes as though by washing with the physiological saline at 4° C., and were then centrifuged at 1600 rpm for ten minutes to remove the supernatant.
(§5) First, to dye CD4s on the cell surface, 10 μl of FITC-labeled mouse anti-human CD4 was added, with CD8 monoclonal antibody as a control, and this was reacted at 4° C. for 30 minutes. The cells were then separated with 0.5% bovine serum albumin/physiological saline at 4° C., then 0.5% bovine serum albumin/physiological saline at 4° C. was added thereto, and this was centrifuged at 1600 rpm for ten minutes at 4° C. to remove the supernatant.
(§6) Next, the mononuclear cell samples were fixed and their cell membranes were permeabilized. The cells were suspended in 250 μl of Cytofix/Cytoperm (Pharmingen) solution and reacted at 4° C. for 20 minutes. 10 μl of the aforementioned fluorescently labeled anti-IFNγ monoclonal antibody or anti-IL-4 monoclonal antibody was added to these mononuclear cell samples and reacted at 4° C. for 30 minutes. Then, the cells were separated by adding 0.5% bovine serum albumin/physiological saline at 4° C., and 0.5% BSA/PBS at 4° C. was further added thereto. After centrifugation at 1600 rpm for ten minutes at 4° C., the supernatant was removed. […]

[2] = test system: CD4-positive/IL-4-producing T cells; experiment: Flow cytometry detection of CD4-positive/IL-4-positive T cells in peptide-stimulated mononuclear cell samples; details: for CD4-positive/IL-4-positive frequencies, mean ± standard deviation: epitope determination, patient's mononuclear cell samples (FIG. 14); for CD4+ IL-4+ number of positive samples/tested samples: mononuclear cell samples cultured 48 hours with peptide and IL-2; for CD4+ IL-4+ number of positive samples/tested samples / CD4+ IL-4+ number of positive samples/tested samples × 100 (%): positive sample > mean of control + 2 × SD (OVCA10-MNC group, 1.148%); for frequency of CD4-positive/IL-4-positive cells, mean±standard deviation: all the analyzed mononuclear cell samples (FIG. 8); for frequency of CD4-positive/IL-4-positive T cells: FIGS. 6 and 7, IL-2 and analogue peptide added
Method: as §1, §2, §3, §4, §5, §6

CD4-positive T cells = experiment: Analysis of the CD4-positive T cell epitope (T cells positive for IL-4 or IFNγ); details: peptides with ten amino acid residues reproducing the MUC16 primary sequence
Method: The results were recorded as: number of double staining-positive cells/total number of counted mononuclear cells ×100=positive cell frequency (%). Furthermore, peptide antigen-specific T cell reactions were determined to be positive when the individual frequencies of positive cells in the mononuclear cell samples were the same as or greater than the mean plus two standard deviations (mean+2SD) of the negative control group, where the negative control was a mononuclear cell sample group that had been stimulated with analogue peptide (OVCA10 stimulation). In addition, each of the peptide-stimulated groups were compared by using t-tests to measure the significant difference.
Next, to determine the T cell epitope (based not on the analogues but on the original sequence), the present inventors went back to the original amino acid sequence of the 11-times repeat sequences of MUC16 from which the 30 amino acid residue sequence: […] (SEQ ID NO: 45) common to OVCA11 and OVCA12 was derived. Furthermore, the sequence was divided into lots of ten amino acid residues to prepare OVCA101 (SEQ ID NO: 4), 102 (SEQ ID NO: 5), 103 (SEQ ID NO: 6), 104 (SEQ ID NO: 7), 105 (SEQ ID NO: 8), 106 (SEQ ID NO: 9), 107 (SEQ ID NO: 2), 108 (SEQ ID NO: 3), 109, 110, 111, 112, 113, 114, 115 (SEQ ID NO: 10) (FIG. 5), and T cells positive for IL-4 or IFNγ were detected using a method similar to the above.

[3] = typical example of flow cytometry

Row | Sequence | CD4-positive/IFNγ expression-positive frequencies, mean ± standard deviation ([1]; peptide 15 μM) | CD4+ IFNγ+ number of positive samples/tested samples [1] | CD4+ IFNγ+ number of positive samples/tested samples × 100 (%) [1] | CD4-positive/IL-4-positive frequencies, mean ± standard deviation ([2]; peptide 15 μM) | CD4+ IL-4+ number of positive samples/tested samples [2] | CD4+ IL-4+ number of positive samples/tested samples × 100 (%) [2] | frequency of CD4-positive/INFγ-positive cells, mean±standard deviation ([1]; peptide 15 μM) | frequency of CD4-positive/IFNγ-positive T cells [1, 3] | frequency of CD4-positive/IL-4-positive cells, mean±standard deviation ([2]; peptide 15 μM) | frequency of CD4-positive/IL-4-positive T cells [2, 3] | recognized by CD4-positive T cells (CD4-positive T cells) | frequency of CD4-positive/IFNγ-producing T cells at the time of epitope determination ([1]; FIG. 16, peptide 15 μM) | frequency of CD4-positive/IFNγ-positive T cells at the time of epitope determination ([1]; typical example of flow cytometry, FIG. 15, IL-2 and peptide added) | frequency of CD4-positive/IL-4-producing T cells at the time of epitope determination ([2]; FIG. 14, peptide 15 μM) | frequency of CD4-positive/IL-4-positive T cells at the time of epitope determination ([2]; typical example of flow cytometry, FIG. 13, IL-2 and peptide added) | frequency of CD4-positive/IFNγ-producing T cells compared to groups to which OVCA10 was added ([1]; FIG. 11, peptide 15 μM, statistically significant difference) | frequency of CD4-positive/IL-4-producing T cells compared to groups to which OVCA10 was added ([2]; FIG. 8, peptide 15 μM, statistically significant difference)
1 | ETTATGPLLV (listed as Homo sapiens) [OVCA104] | 0.376±0.490% | 1/14 | 7.1% | 0.301±0.340% | 0/14 | 0% |  |  |  |  |  |  |  |  |  |  | 
2 | GHTAPGPLLV (listed as Homo sapiens) [OVCA102] | 0.532±0.545% | 1/14 | 7.1% | 0.231±0.309% | 0/14 | 0% |  |  |  |  |  |  |  |  |  |  | 
3 | GHTAPVPLLI (listed as Homo sapiens) [OVCA101] | 0.471±0.562% | 2/14 | 14.3% | 0.181±0.231% | 0/14 | 0% |  |  |  |  |  |  |  |  |  |  | 
4 | GPSAASPLLV (listed as Homo sapiens) [OVCA106] | 0.641±1.082% | 2/14 | 14.3% | 0.649±1.337% | 2/14 | 14.3% |  |  |  |  |  |  |  |  |  |  | 
5 | GPTTASPLLV (listed as Homo sapiens) [OVCA105] | 0.379±0.497% | 1/14 | 7.1% | 0.243±0.358% | 1/14 | 0% |  |  |  |  |  |  |  |  |  |  | 
6 | GTSGTPASLPGHTAPGPLLV (listed as Homo sapiens) [OVCA10] |  | 1/33 | 3.0% |  | 1/33 | 3.0% | 0.328±0.525% | 0.11% | 0.252±0.448% | 0.05% |  |  |  |  |  |  | 
7 | LFTLNPTITN [OVCA108] | 8.963±19.939% | 2/8 | 25.0% | 6.471±13.319% | 5/9 | 55.6% |  |  |  |  | recognized by CD4-positive T cells | High frequency cases could be detected | 1.27% | High frequency cases could be detected | 1.17% |  | 
8 | LRYEENMRHP (listed as Homo sapiens) [OVCA115] | 0.161±0.157% | 0/8 | 0% | 0.281±0.424% | 1/9 | 11.1% |  |  |  |  |  |  |  |  |  |  | 
9 | LRYEENMRHPGSRKFNTTER (listed as Homo sapiens) [OVCA13] |  | 0/6 | 0% |  | 0/6 | 0% |  |  |  |  |  |  |  |  |  |  | 
10 | PFTLNFTITNLRYEENMRHP (listed as Homo sapiens) [OVCA12] |  | 13 of the 33 and 13/33 | 39.4% |  | 18 of the 33 and 18/33 | 54.5% | 5.071±10.315% | 0.28% | 5.263±9.059% | 0.57% |  |  |  |  |  | higher | higher
11 | RPIVPGPLLV (listed as Homo sapiens) [OVCA103] | 0.331±0.467% | 1/14 | 7.1% | 0.211±0.269% | 0/14 | 0% |  |  |  |  |  |  |  |  |  |  | 
12 | STPGTSTVHLGTSGTPASLP (listed as Homo sapiens) [OVCA9] |  | 2/29 | 6.9% |  | 0/29 | 0% |  | 0.02% |  | 0.05% |  |  |  |  |  |  | 
